Experimental data as given in patent publication EP4806894A1, “TNAP INHIBITORY COMPOUND AND USE THEREOF” (Rednvia Co., Ltd., priority 2023, dated 2025).
Counter-ions that a name gives are not always drawn.

Legend:
TNAP = biological target: T1, TNAP (Homo sapiens, UniProt P05186); assay: TNAP inhibitory activity, colorimetric assay (alkaline phosphatase assay kit ab83369, pNPP substrate); assay type: biochemical; details: TNAP enzyme, 2 hours at room temperature, absorbance 405 nm
T1 sequence (P05186 18-502 limits assumed): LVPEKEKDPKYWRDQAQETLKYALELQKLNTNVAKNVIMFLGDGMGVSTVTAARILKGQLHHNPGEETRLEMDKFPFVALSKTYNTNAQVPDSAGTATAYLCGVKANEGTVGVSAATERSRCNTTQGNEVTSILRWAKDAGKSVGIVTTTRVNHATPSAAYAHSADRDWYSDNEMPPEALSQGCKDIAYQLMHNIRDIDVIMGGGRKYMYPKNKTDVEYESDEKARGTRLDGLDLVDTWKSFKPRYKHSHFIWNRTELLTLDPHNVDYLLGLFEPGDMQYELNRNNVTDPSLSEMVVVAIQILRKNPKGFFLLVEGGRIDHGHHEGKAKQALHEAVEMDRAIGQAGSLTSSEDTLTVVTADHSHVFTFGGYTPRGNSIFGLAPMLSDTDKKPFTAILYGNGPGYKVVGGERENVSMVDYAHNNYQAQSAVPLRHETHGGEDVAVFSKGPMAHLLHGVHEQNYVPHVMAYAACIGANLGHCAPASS
Procedure: The TNAP inhibitory activity of the compounds according to the present invention was analyzed by colorimetric assay.
The experiments were performed according to the protocol of the alkaline phosphatase assay kit ab83369.
TNAP enzyme at a concentration of 0.2 ng/µl was dispensed into a 96-well plate (Costar) (10 µl/well), to which the 10-fold diluted test substance was added (15 µl/well). The plate was incubated at room temperature, shielded from light, for 10 minutes to allow the enzyme and compound to act. After incubation, 125 µl of 1 mM substrate (pNPP) was added to each well of the plate, and the plate was incubated for 2 hours at room temperature in a darkened state to allow the enzyme, substrate, and test compound to act. Absorbance was measured at 405 nm using a microplate reader (Tecan spark), and IC50 was calculated using GraphPad Prism 9. The amount of p-nitrophenol produced was calculated through the absorbance, and the degree of TNAP activity inhibition was evaluated through the degree of inhibition of p-nitrophenol production, and the concentration of the compound that inhibited 50% was calculated as the IC50 value.

saos-2 cells = assay: Anticalcification efficacy in saos-2 cells (osteogenic medium, Alizarin Red staining); assay type: cell-based; details: Homo sapiens, 168 h, test compound 1 µM, 7 days osteogenic medium, Alizarin Red absorbance 540 nm, read-out: calcification inhibition
Procedure: To confirm the inhibitory effect of calcification in saos-2 cells in which calcification is induced by overexpression of TNAP, saos-2 cells were cultured in a culture medium in an incubator at 37°C, 95% humidity, and 5% CO2. RPMI-1640 (Corning) supplemented with 10% FBS (Gibco) and 1% Pen/Strep (Gibco) was used as the culture medium.
Saos-2 cells were seeded in a 48-well plate at the density of 1.5 x 10^4 cells/well and used in the experiment when they reached 80-90% confluence after stabilization for 2 days.
After saos-2 cells were cultured in a 48-well plate to 80-90% confluence, the culture medium was removed and replaced with an osteogenic medium (OM). DMEM (Gibco) containing 10% FBS, 1% Pen/Strep, 100 nM dexamethasone (Sigma), 10 mM β-glycerophosphate (Sigma), and 0.05 mM L-ascorbic acid (Sigma) was used as the OM. Osteogenic differentiation of saos-2 cells by OM was induced for 7 days, and OM was replaced every 2 to 3 days.
When inducing calcification through OM in saos-2 cells, the cells were treated with concentrations of […] of the TNAP inhibitor test compounds with the OM replacement cycle, except for the control group (OM).
After 7 days of OM induction, the medium was removed from each well and the plate was washed twice with PBS. Cells were fixed with 4% paraformaldehyde for 1 hour, then the fixative was removed and washed twice with deionized water (DW). ARS solution was added to the plate and shaken for 1 hour to stain the cells. When the cells were sufficiently stained red, the dye was removed, the cells were washed carefully with DW, dried, and then photographs were taken of the stained cells. The red-stained area represents calcification induced by OM, and the degree of calcification was determined based on the degree of redness. To quantify this, 10% cetylpyridinium chloride was dispensed into the wells and the dye was dissolved. The dye-dissolved solution was transferred to each well of a 96 well plate and absorbance was measured at 540 nm.
The degree of decrease in the measured absorbance by the test compounds based on the absorbance for OM was evaluated as the degree of inhibition of calcification.

IC50 (TNAP) | Structure (SMILES) | inhibition at 1 µM (saos-2 cells)
100 to 1000 nM | COc1ccc(-c2cnn(C)c2)cc1S(=O)(=O)Nc1cnc2c(c1)C(=O)NCC2 [Example 57, 2-methoxy-5-(1-methyl-1H-pyrazole-4-yl)-N-(5-oxo-5,6,7,8-tetrahydro-1,6-naphthyridine-3-yl)benzenesulfonamide] | ≥ 50%
≥ 1000 nM | COc1ccc(-c2cnn(C(C)(C)C(N)=O)c2)cc1S(=O)(=O)Nc1cnc2c(c1)C(=O)NCC2 [Example 58, 2-(4-(4-methoxy-3-(N-(5-oxo-5,6,7,8-tetrahydro-1,6-naphthyridine-3-yl)sulfamoyl)phenyl)-1H-pyrazole-1-yl)-2-methylpropanamide] | 0 to 50%
100 to 1000 nM | CCOC(=O)C(C)(C)n1cc(-c2ccc(OC)c(S(=O)(=O)Nc3cnc4c(c3)C(=O)NCC4)c2)cn1 [Example 59, ethyl 2-(4-(4-methoxy-3-(N-(5-oxo-5,6,7,8-tetrahydro-1,6-naphthyridine-3-yl)sulfamoyl)phenyl)-1H-pyrazole-1-yl)-2-methylpropanoate] | ≥ 50%
100 to 1000 nM | COc1ccc(-c2cnn(C(C)(C)C(=O)O)c2)cc1S(=O)(=O)Nc1cnc2c(c1)C(=O)NCC2 [Example 60, 2-(4-(4-methoxy-3-(N-(5-oxo-5,6,7,8-tetrahydro-1,6-naphthyridine-3-yl)sulfamoyl)phenyl)-1H-pyrazole-1-yl)-2-methylpropanoic acid] | ≥ 50%
≥ 1000 nM | CCNC(=O)Cn1cc(-c2ccc(OC)c(S(=O)(=O)Nc3cnc4c(c3)C(=O)NCC4)c2)cn1 [Example 66, N-ethyl-2-(4-(4-methoxy-3-(N-(5-oxo-5,6,7,8-tetrahydro-1,6-naphthyridine-3-yl)sulfamoyl)phenyl)-1H-pyrazole-1-yl)acetamide] | < 0%
100 to 1000 nM | CCNC(=O)CCc1ccc(-c2ccc(OC)c(S(=O)(=O)Nc3cnc4c(c3)C(=O)NCC4)c2)cc1 [Example 67, N-ethyl-3-(4'-methoxy-3'-(N-(5-oxo-5,6,7,8-tetrahydro-1,6-naphthyridine-3-yl)sulfamoyl)-[1,1'-biphenyl]-4-yl)propanamide] | 0 to 50%
10 to 100 nM | CCOC(=O)Cn1cc(-c2ccc(OC)c(S(=O)(=O)Nc3cnc4c(c3)C(=O)NCC4)c2)cn1 [Example 68, ethyl 2-(4-(4-methoxy-3-(N-(5-oxo-5,6,7,8-tetrahydro-1,6-naphthyridine-3-yl)sulfamoyl)phenyl)-1H-pyrazole-1-yl)acetate] | ≥ 50%

Continued, compound first:

Structure (SMILES) | IC50 (TNAP) | inhibition at 1 µM (saos-2 cells)
CCOC(=O)CCc1ccc(-c2ccc(OC)c(S(=O)(=O)Nc3cnc4c(c3)C(=O)NCC4)c2)cc1 [Example 49, ethyl 3-(4'-methoxy-3'-(N-(5-oxo-5,6,7,8-tetrahydro-1,6-naphthyridine-3-yl)sulfamoyl)-[1,1'-biphenyl]-4-yl)propanoate] | 10 to 100 nM | ≥ 50%
COc1ccc(-c2ccc(CCC(=O)O)cc2)cc1S(=O)(=O)Nc1cnc2c(c1)C(=O)NCC2 [Example 50, 3-(4'-methoxy-3'-(N-(5-oxo-5,6,7,8-tetrahydro-1,6-naphthyridine-3-yl)sulfamoyl)-[1,1'-biphenyl]-4-yl)propanoic acid] | 10 to 100 nM | ≥ 50%
COc1ccc(C2=CCOCC2)cc1S(=O)(=O)Nc1cnc2c(c1)C(=O)NCC2 [Example 51, 5-(3,6-dihydro-2H-pyran-4-yl)-2-methoxy-N-(5-oxo-5,6,7,8-tetrahydro-1,6-naphthyridine-3-yl)benzenesulfonamide] | 100 to 1000 nM | ≥ 50%
COc1ccc(C2=CCN(C(=O)OC(C)(C)C)CC2)cc1S(=O)(=O)Nc1cnc2c(c1)C(=O)NCC2 [Example 52, tert-butyl 4-(4-methoxy-3-(N-(5-oxo-5,6,7,8-tetrahydro-1,6-naphthyridine-3-yl)sulfamoyl)phenyl)-3,6-dihydropyridine-1(2H)-carboxylate] | 100 to 1000 nM | ≥ 50%
COc1ccc(C2=CCNCC2)cc1S(=O)(=O)Nc1cnc2c(c1)C(=O)NCC2 [Example 53, 2-methoxy-N-(5-oxo-5,6,7,8-tetrahydro-1,6-naphthyridine-3-yl)-5-(1,2,3,6-tetrahydropyridine-4-yl)benzenesulfonamide hydrochloride] | 100 to 1000 nM | 0 to 50%
COc1ccc(-c2cnn(C3CCCCO3)c2)cc1S(=O)(=O)Nc1cnc2c(c1)C(=O)NCC2 (stereo not drawn) [Example 54, 2-methoxy-N-(5-oxo-5,6,7,8-tetrahydro-1,6-naphthyridine-3-yl)-5-(1-(tetrahydro-2H-pyran-2-yl)-1H-pyrazole-4-yl)benzenesulfonamide] | 100 to 1000 nM | ≥ 50%
COc1ccc(-c2cn[nH]c2)cc1S(=O)(=O)Nc1cnc2c(c1)C(=O)NCC2 [Example 55, 2-methoxy-N-(5-oxo-5,6,7,8-tetrahydro-1,6-naphthyridine-3-yl)-5-(1H-pyrazole-4-yl)benzenesulfonamide] | 100 to 1000 nM | ≥ 50%
O=C1NCCc2ncc(NS(=O)(=O)c3cc(F)ccc3Br)cc21 [Example 56, 2-bromo-5-fluoro-N-(5-oxo-5,6,7,8-tetrahydro-1,6-naphthyridine-3-yl)benzenesulfonamide] | 100 to 1000 nM | ≥ 50%
COc1ccc(C2=CCN(C(C)=O)CC2)cc1S(=O)(=O)Nc1cnc2c(c1)C(=O)NCC2 [Example 61, 5-(1-acetyl-1,2,3,6-tetrahydropyridine-4-yl)-2-methoxy-N-(5-oxo-5,6,7,8-tetrahydro-1,6-naphthyridine-3-yl)benzenesulfonamide] | 100 to 1000 nM | ≥ 50%
COc1ccc(C2=CCCOC2)cc1S(=O)(=O)Nc1cnc2c(c1)C(=O)NCC2 [Example 62, 5-(5,6-dihydro-2H-pyran-3-yl)-2-methoxy-N-(5-oxo-5,6,7,8-tetrahydro-1,6-naphthyridine-3-yl)benzenesulfonamide] | 10 to 100 nM | ≥ 50%
COc1ccc(C2=CCCCC2)cc1S(=O)(=O)Nc1cnc2c(c1)C(=O)NCC2 [Example 63, 4-methoxy-N-(5-oxo-5,6,7,8-tetrahydro-1,6-naphthyridine-3-yl)-2',3',4',5'-tetrahydro-[1,1'-biphenyl]-3-sulfonamide] | 100 to 1000 nM | < 0%
COc1ccc(C2=CCC(F)(F)CC2)cc1S(=O)(=O)Nc1cnc2c(c1)C(=O)NCC2 [Example 64, 4',4'-difluoro-4-methoxy-N-(5-oxo-5,6,7,8-tetrahydro-1,6-naphthyridine-3-yl)-2',3',4',5'-tetrahydro-[1,1'-biphenyl]-3-sulfonamide] | ≥ 1000 nM | < 0%
COc1ccc(-c2cnn(C3CCN(C)CC3)c2)cc1S(=O)(=O)Nc1cnc2c(c1)C(=O)NCC2 [Example 65, 2-methoxy-5-(1-(1-methylpiperidine-4-yl)-1H-pyrazole-4-yl)-N-(5-oxo-5,6,7,8-tetrahydro-1,6-naphthyridine-3-yl)benzenesulfonamide] | ≥ 1000 nM | < 0%
COc1ccc(-c2cnn(C(C)c3nc(C(C)C)no3)c2)cc1S(=O)(=O)Nc1cnc2c(c1)C(=O)NCC2 (stereo not drawn) [Example 69, 5-(1-(1-(3-isopropyl-1,2,4-oxadiazole-5-yl)ethyl)-1H-pyrazole-4-yl)-2-methoxy-N-(5-oxo-5,6,7,8-tetrahydro-1,6-naphthyridine-3-yl)benzenesulfonamide] | 100 to 1000 nM | < 0%
